Consider one molecule from patent publication US10155004B2, “17-hydroxy-17-pentafluoroethyl-estra-4,9(10)-dien-11-aryl derivatives, method of production thereof and use thereof for the treatment of diseases” (BAYER INTELLECTUAL PROPERTY GMBH, priority 2009, dated 2018).

The test system of one series is pregnant rats. Put plainly: Abortion test on female rats (termination of early pregnancy). The conditions noted are these: d5-d7 p.c., autopsy d9 p.c. The format is in vivo, rat. As to the method:
EXAMPLE 17 ABORTION TEST ON FEMALE RATS
The action of progesterone and of the progesterone receptor is a fundamental precondition for successful pregnancy or gestation in mammals. The progesterone-antagonistic action of the compounds according to the invention was tested on pregnant rats (6 rats per group) on day 5 to 7 post coitum with conventional housing and feeding conditions.
After successful hand mating, the pregnant animals (presence of sperm in the vaginal smear on day 1 of pregnancy=d1 p.c.) were randomized and divided into the treatment group and the control group. The animals then each received subcutaneously or orally 0.15; 0.5; 1.5 or 5 mg/kg of the test compound or 1.0 ml/kg of vehicle (benzyl benzoate/castor oil: 1+4 [v/v]) daily from day 5 to day 7 (d5-d7 p.c.).
Autopsy was carried out on day 9 (d9 p.c.). As a characteristic of progesterone receptor antagonistic action, the uterus was examined for the presence of nidation sites. Complete absence, or also the presence of pathological, haemorrhagic or otherwise abnormal nidation sites on day 9 (d9 p.c.) was assessed as abortion.

Series [1] is described as follows: Metabolic stability in human liver microsomes (HLM). The conditions noted are these: from HLM half-life, well-stirred model, phase I reactions; 1 μM, 0.5 mg/ml protein. It is filed as in vitro ADME. As to the method: EXAMPLE 18 METABOLIC STABILITY OF (11β,17β)-17-HYDROXY-11[4-(METHYLSULPHONYL)PHENYL]-17-(PENTAFLUOROETHYL)ESTRA-4,9-DIEN-3-ONE AND (11β,17β)-17-HYDROXY-11-[4′-(METHYLSULPHONYL)-BIPHENYL-4-YL]-17-(PENTAFLUOROETHYL)ESTRA-4,9-DIEN-3-ONE IN HUMAN LIVER MICROSOMES (HLM)
Isolated human liver microsomes (HLM) were used for assessing the metabolic stability of compounds of general formula I.
Incubations were carried out with 2.4 ml of HLM solution (0.5 mg/ml protein content), 30 μl of the test compound (final concentration 1 μM) and 0.6 ml of the cofactor mixture (=NADPH-generating system of 3 IU glucose-6-phosphate dehydrogenase, 14.6 mg glucose-6-phosphate, 1.2 mg NADP) at 37° C. in 100 mM phosphate buffer at pH 7.4. Samples are taken at 6 time points (2-60 min), precipitated with an equal volume of methanol and the recovery of the test substances used in the supernatant is determined by LC-MS/MS analysis. The intrinsic clearance of the substance in the liver microsome preparation can be calculated from the half-life found for the breakdown of the substance. Based on this, together with various physiological characteristics according to the well-stirred model, it is then possible to predict a (metabolic) in vivo clearance with respect to phase I reactions. […]
A general note: Microsomes from liver hold many membrane-bound enzymes, among them those of drug oxidation.

In a further series the test system is cardiovascular system. Put plainly: Action on the cardiovascular system (incl. ECG) of anaesthetized beagle dogs. It is filed as in vivo. As to the method:
EXAMPLE 20 INVESTIGATION OF THE ACTION ON THE CARDIOVASCULAR SYSTEM (INCL. ECG) OF ANAESTHETIZED BEAGLE DOGS
(11β,17β)-17-Hydroxy-11-[4-(methylsulphonyl)phenyl]-17-(pentafluoroethy)estra-4,9-dien-3-one, dissolved in a mixture of PEG 400 and HP-β-CD (60% PEG 400, 40% HP-β-CD 30%), was administered intravenously to anaesthetized female beagle dogs. The body weight of the dogs was >9 kg. 3 dogs were treated per group and additionally 3 dogs in the control group. 0.1; 0.33 and 1 mg/kg of the substance was administered in 3 consecutive infusions, in each case over a period of 30 minutes. The maximum amount of vehicle was 0.4 ml per kg for 30 minutes. Blood samples were taken from the animals at various time points. The highest plasma level (average for all 3 animals) was 1650 ng/ml at the end of the third infusion.

Take `C[C@]12C[C@H](c3ccc(S(C)(=O)=O)cc3)C3=C4CCC(=O)C=C4CC[C@H]3[C@@H]1CC[C@@]2(O)C(F)(F)C(F)(F)F` [Example 4, (11β,17β)-17-Hydroxy-11-[4-(methylsulphonyl)phenyl]-17-(pentafluoroethyl)estra-4,9-dien-3-one]: the Abortion rate with pregnant rats (daily dose 0.15 mg/kg s.c. or p.o.) was 40%; in the series with pregnant rats (daily dose 0.5 mg/kg s.c. or p.o.), 100%; with pregnant rats (daily dose 1.5 mg/kg s.c. or p.o.) it was 100%; in the series with pregnant rats (daily dose 5.0 mg/kg s.c. or p.o.), 100%. In addition, the “(metabolic) in vivo clearance in humans predicted” value in series [1] was 1.7 mL/min/kg. Further, the “highest plasma level (average for all 3 animals)” value in the series on cardiovascular system (end of third infusion, i.v. 0.1, 0.33 and 1 mg/kg consecutive 30 minute infusions) was found to be 1650 ng/mL. Besides, in the series on cardiovascular system (i.v. 0.1, 0.33 and 1 mg/kg, in comparison with the control), the “effects on the cardiovascular system (pulmonary artery pressure, systemic arterial blood pressure, heart rate, ECG)” value was “no biologically relevant effects”.
